“Also recorded” adds a separate entry of the source. Like-named read-outs stand apart in the source and are kept apart here. Marks after values point to notes of the source that are not given here.
Assays:
[1] = in vivo
Procedure: (§1) A specific food interaction study was conducted, in which the pharmacokinetic profile of ulipristal acetate and its main metabolite 3877A was evaluated after single administration of a 30-mg ulipristal acetate micronized tablet either under fasted conditions or after a high-fat breakfast. The main pharmacokinetic parameters were evaluated, including maximum plasma concentration (Cmax), area under the drug concentration curve (AUC) from time 0 to time of last determinable concentration or to infinity, and the time to maximum plasma concentration (tmax).
(§2) A second oral administration followed, after at least a 21-day wash-out period.
(§3) Analysis of Cmax and AUC was carried out by analysis of variance using PROC MIXED® program on the logarithmically transformed data. The 90% standard confidence interval limits for relative treatment differences was calculated by geometric means based on logarithmic transformation of the intra-individual ratios of Cmax and AUC.
(§4) The analysis of tmax was based on Wilocoxon-Mann-Whitney test adapted according to the methodology of Koch. Estimate for treatment difference and 90% confidence interval was estimated according to the method of Moses.

[2] = used within 72 hours of unprotected intercourse; cited from earlier work
[3] = Food interaction study: bioavailability of a single 30 mg oral dose of ulipristal acetate in fed and fasting states; conditions: for AUC(0-t) / AUC(0-inf) / Cmax / Tmax / half-life: female, human, plasma, oral, 30 mg; for AUC(0-t): AUC0-t; for AUC(0-inf): AUC0-∞
Procedure: as §1, §2, §3, §4

[4] = Phase III pregnancy rates after 30 mg ulipristal acetate tablet by food intake prior to treatment; type: in vivo, human; conditions: for Observed PR (pregnancy rate): 30 mg tablet
Procedure: With respect to clinical efficacy, data on last food intake prior to study drug was collected in a subset of subjects (n=1185) included in the phase III program of development of the 30 mg ulipristal acetate tablet for emergency contraception. Pregnancy rates (PR) were compared between women who reported having eaten within two hours prior to treatment intake versus those who reported having eaten only earlier.

[5] = Fed vs. Fasted condition, ANOVA
[6] = fasted, single 30 mg tablet, mean ± SD
[7] = fed (high-fat breakfast), single 30 mg tablet, mean ± SD

## CNc1ccc([C@H]2C[C@@]3(C)[C@@H](CC[C@]3(OC(C)=O)C(C)=O)[C@@H]3CCC4=CC(=O)CCC4=C32)cc1 [3877A, 17α-acetoxy-11β-[4-N-methylamino-phenyl)-19-norpregna-4,9-diene-3,20-dione]
[1]; human
  terminal elimination half-life: around 30 h
[1]; human, 30 mg
  AUC0-∞: 0.265 µg·h/mL
  AUC(0-t): 0.244 µg·h/mL
  Cmax: 0.0865 µg/mL
  Tmax: 0.75 h
  t1/2: 30.0 ± 7.56^c h
[1]
  AUC0-t, point estimate of the fed/fasted ratio of least squares geometric means: 121.72^a %
  AUC0-∞, point estimate of the fed/fasted ratio of least squares geometric means: 118.73^c %
  Cmax, point estimate of the fed/fasted ratio of least squares geometric means: 62.45%

## CC(=O)O[C@]1(C(C)=O)CC[C@H]2[C@@H]3CCC4=CC(=O)CCC4=C3[C@@H](c3ccc(N(C)C)cc3)C[C@@]21C [ulipristal acetate, 17α-acetoxy-11β-[4-N,N-dimethylamino-phenyl)-19-norpregna-4,9-diene-3,20-dione]
[2]
  efficacy for preventing pregnancy compared with levonorgestrel: as efficacious as levonorgestrel
[3]; [5]
  AUC0-t, point estimate of the fed/fasted ratio of least squares geometric means: 123.30^a %
  AUC0-∞, point estimate of the fed/fasted ratio of least squares geometric means: 126.20^b %
  Cmax, point estimate of the fed/fasted ratio of least squares geometric means: 56.25%
[3]; compared with administration in a fasted state
  higher mean AUC0-∞ with a high-fat breakfast: 25%
[3]; fasted, single 30 mg tablet, median (range)
  tlag: 0.00 (0.00-0.00) h
[3]; fed (high-fat breakfast), single 30 mg tablet, median (range)
  tlag: 0.00 (0.00-0.50) h
[3]; [6]
  AUC(0-t): 0.467 µg·h/mL
  AUC(0-inf): 0.474 µg·h/mL
[3]; [7]
  AUC(0-t): 0.566 µg·h/mL
  AUC(0-inf): 0.608 µg·h/mL
[3]; fasted, single 30 mg ulipristal acetate micronized tablet, healthy women, mean ± SD
  Cmax: 0.173 µg/mL
[3]; fed (high-fat breakfast), single 30 mg ulipristal acetate tablet, mean ± SD
  Cmax: 0.0992 µg/mL
[3]; Tmax (median), fasted state, as stated for the printed matter
  Tmax: 0.75 h
[3]; Tmax (median), with a high-fat breakfast, as stated for the printed matter
  Tmax: 3 h
[3]; t1/2, fasted, single 30 mg tablet, mean ± SD
  half-life: 37.2 ± 7.19 h
[3]; t1/2, fed (high-fat breakfast), single 30 mg tablet, mean ± SD
  half-life: 36 ± 7.78 h
[3]; terminal elimination half-life, average, independently of the food condition
  half-life: ~36 h
[3]; tmax, fasted, single 30 mg tablet, median (range)
  Tmax: 0.75 h
[3]; tmax, fed (high-fat breakfast), single 30 mg tablet, median (range)
  Tmax: 3 h
[4]; food intake 2 h or more before ulipristal acetate intake
  Expected PR (pregnancy rate): 5.56%
[4]; food intake 2 h or more before ulipristal acetate intake, n=905
  Observed PR (pregnancy rate): 1.44%
[4]; food intake less than 2 h before ulipristal acetate intake
  Expected PR (pregnancy rate): 5.27%
[4]; food intake less than 2 h before ulipristal acetate intake, n=279
  Observed PR (pregnancy rate): 1.79%
[4]; phase III trials, eaten within two hours prior to intake versus earlier
  effect of food on efficacy in emergency contraception (pregnancy rate): the same therapeutic efficacy; also recorded: no significant effect
